# Reference: patent US9662063B2, “Pain sensory nerve stimulation apparatus” (INTER-UNIVERSITY RESEARCH INSTITUTE CORPORATION NATIONAL …, priority 2011, dated 2017)
# Test system: C fibers
# Assay: Current threshold for C fiber stimulation (anode stimulation) after application of capsaicin in vaseline to subjects
# Format: in vivo
# Conditions: for current threshold: anode stimulation of C fibers
# Excerpt: Even when any one of the above-described configurations of the stimulation electrode 30 is used, at least one of an exogenous algesic substance 60 and a pyrogen 60 is interposed between the stimulation electrode 30 and the contact portion of the living body A, by means of, for example, application (FIG. 1). Examples of the exogenous algesic substance 60 are capsaicin, sanshool, zingerone, camphor, allyl isothiocyanate, and menthol. The exogenous algesic substance is a concept which contains an algesic substance, a phlogogenic substance, and an irritating substance. In the case where the exogenous algesic substance 60 is interposed by means of application, it is preferably applied about 20 minutes before stimulation of the living body. Preferably, the pyrogen 60 warms the stimulation portion of the living body A to about 30° C. by, for example, using heat generation due to an oxidation reaction of a metal. The operating section 24 includes a polarity conversion setting unit. The polarity conversion setting unit can give instructions for causing the polarity switching section 25 which is the electrical polarity converting unit, to convert the electrical polarity. According to the configuration, the electrical polarity of the needle electrode 31 can be set as the anode, and that of the contact electrode 32 can be set as the cathode, or, by contrast, the electrical polarity of the needle electrode 31 can be set as the cathode, and that of the contact electrode 32 can be set as the anode. […] In the case where the polarity switching section 25 sets the electrical polarity of the needle electrode 31 as the cathode, moreover, Aδ fibers can be selectively stimulated. Table 1 indicates results of measurements in which an appropriate amount (a weight ratio of about 0.05 to 0.1 with respect to vaseline) of capsaicin was applied as the exogenous algesic substance to four subjects. Table 1 indicates relationships between the current threshold in the case where the anode stimulation was performed on each subject and C fibers of each subject was stimulated, and the time period elapsed after the application. […] Since an effect due to stimulation was obtained even at a low stimulation intensity (mA), this minimizes the burden on a subject, and realizes the check of the nerve function. It was also confirmed that an effective examination can be conducted without being affected by the skill of the measuring person.
compound,measurement,setting,value
COc1cc(CNC(=O)CCCC/C=C/C(C)C)ccc1O [capsaicin],current threshold,"Subject 1, 5 minutes after application, capsaicin weight ratio about 0.05 to 0.1 with respect to vaseline",0.10 (mA)
same,current threshold,"Subject 1, 10 minutes after application",0.10 (mA)
same,current threshold,"Subject 1, 15 minutes after application",0.09 (mA)
same,current threshold,"Subject 1, 20 minutes after application",0.09 (mA)
same,current threshold,"Subject 2, 5 minutes after application",0.32 (mA)
same,current threshold,"Subject 2, 10 minutes after application",0.18 (mA)
same,current threshold,"Subject 2, 15 minutes after application",0.13 (mA)
same,current threshold,"Subject 2, 20 minutes after application",0.15 (mA)
same,current threshold reduced to fraction of the normal value,"Subject 2, during 20 minutes after the application",about one half
same,current threshold,"Subject 3, 5 minutes after application",0.14 (mA)
same,current threshold,"Subject 3, 10 minutes after application",0.13 (mA)
same,current threshold,"Subject 3, 20 minutes after application",0.09 (mA)
same,current threshold reduced to fraction of the normal value,"Subject 3, during 20 minutes after the application",about two thirds
same,current threshold,"Subject 4, 5 minutes after application",0.05 (mA)
same,current threshold,"Subject 4, 10 minutes after application",0.04 (mA)
same,current threshold,"Subject 4, 15 minutes after application",0.04 (mA)
same,current threshold,"Subject 4, 20 minutes after application",0.04 (mA)
same,trend of the current threshold,"four subjects, during 20 minutes after the application",downward trend
